PubChem BioAssay AID250 (DTP/NCI, 2004)
“And” between values parts separate entries of the source, which are not always exact repeats. Equal entries are not always repeated. Toxic doses and inconclusive results are not listed. Numbered stars: 1 amine (or outer) side, 2 acyl side, 3 side chain; on linkers, the order of the positions; unused ones are H or OH. Bridge positions count the residues as written; N and C are the ends. Square brackets hold non-standard residues; d marks the D form. Peptide text beside a SMILES is read from it. I, II: the chains in the order shown. Actinocin(9to1) = Cc1c2oc3c(C)ccc(C(=O)[*:1])c3nc-2c(C(=O)[*:2])c(N)c1=O; aThr = C[C@H](O)[C@H](N)C(=O)O; NMeV = CN[C@H](C(=O)O)C(C)C; Sar = CNCC(=O)O

Tested on: BDF1 mice, L1210 leukemia sc, survival T/C
Assay: NCI In Vivo Anticancer Drug Screen. Data for tumor model L1210 Leukemia (subcutaneous) in B6D2F1 (BDF1) mice
Details: endpoint: median survival time, higher = longer survival
Procedure, shortened: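 Antitumor activity is assessed in mice with transplanted tumors by comparing the treated group (T) with the vehicle control group (C).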

[1] = dose: 108.0 mg/kg/injection, schedule: Q01DX Z (sc), vehicle: methylcellulose (MC)

With `Cc1c2ccncc2c(C)c2c1[nH]c1ccccc12` the T/C (dose: 5.0 mg/kg/injection, schedule: Q03HX008 (ip), vehicle: steriod suspending solution) was 111 % of control, the T/C (dose: 5.0 mg/kg/injection, schedule: Q03HX008 (sc), vehicle: steriod suspending solution) was 100 % of control and the T/C (dose: 10.0 mg/kg/injection, schedule: Q03HX008 (ip), vehicle: steriod suspending solution) was 111 % of control. For the same compound, the T/C (dose: 10.0 mg/kg/injection, schedule: Q03HX008 (sc), vehicle: steriod suspending solution) was 111 % of control, the T/C (dose: 20.0 mg/kg/injection, schedule: Q03HX008 (sc), vehicle: steriod suspending solution) was 111 % of control and the T/C (dose: 40.0 mg/kg/injection, schedule: Q03HX008 (ip), vehicle: steriod suspending solution) was 150 % of control.
With `CC[C@@]1(O)C(=O)OCc2c1cc1n(c2=O)Cc2cc3ccccc3nc2-1` the T/C (dose: 0.65 mg/kg/injection, schedule: Q01DX Z (sc), vehicle: carboxymethylcellulose (CMC)) was 100 % of control, the T/C (dose: 1.08 mg/kg/injection, schedule: Q01DX Z (sc), vehicle: carboxymethylcellulose (CMC)) was 100 % of control and the T/C (dose: 1.8 mg/kg/injection, schedule: Q01DX Z (sc), vehicle: carboxymethylcellulose (CMC)) was 122 % of control. The T/C (dose: 3.0 mg/kg/injection, schedule: Q01DX Z (sc), vehicle: carboxymethylcellulose (CMC)) was 118 % of control.
With `CC(C)Sc1ncnc2nc[nH]c12` the T/C (dose: 38.9 mg/kg/injection, schedule: Q01DX Z (sc), vehicle: methylcellulose (MC)) was 110 % of control, the T/C (dose: 64.8 mg/kg/injection, schedule: Q01DX Z (sc), vehicle: methylcellulose (MC)) was 155 % of control and the T/C [1] was 155 % of control.
In the case of `CN(C)CCN(Cc1ccccc1)c1ccccn1`, the T/C (dose: 16.0 mg/kg/injection, schedule: Q01DX001 (sc), vehicle: saline) is reported as 95 % of control and 100 % of control, the T/C (dose: 20.0 mg/kg/injection, schedule: Q01DX001 (sc), vehicle: saline) is reported as 97 % of control and 100 % of control and the T/C (dose: 24.0 mg/kg/injection, schedule: Q01DX001 (sc), vehicle: saline) is reported as 96 % of control and 100 % of control. For the same compound, the T/C (dose: 30.0 mg/kg/injection, schedule: Q01DX001 (sc), vehicle: saline) was 98 % of control and 100 % of control.
`Cc1c2oc3c(C)ccc(C(=O)N[C@@H]4C(=O)N[C@H](C(C)C)C(=O)N5CCC[C@H]5C(=O)N(C)CC(=O)N(C)[C@@H](C(C)C)C(=O)O[C@H]4C)c3nc-2c(C(=O)N[C@@H]2C(=O)N[C@H](C(C)C)C(=O)N3CCC[C@H]3C(=O)N(C)CC(=O)N(C)[C@@H](C(C)C)C(=O)O[C@H]2C)c(N)c1=O` (I: [aThr][dV]P[Sar][NMeV] / II: [aThr][dV]P[Sar][NMeV]; ester I:1-I:C, II:1-II:C; linker I:N-II:N via Actinocin(9to1)) was tested, and the T/C (dose: 0.07 mg/kg/injection, schedule: Q01DX009 (sc), vehicle: saline) was 95 % of control, the T/C (dose: 0.07 mg/kg/injection, schedule: Q01DX Z (sc), vehicle: saline) was 110 % of control and the T/C (dose: 0.15 mg/kg/injection, schedule: Q01DX009 (sc), vehicle: saline) was 103 % of control. The T/C (dose: 0.3 mg/kg/injection, schedule: Q01DX009 (sc), vehicle: saline) was 106 % of control, the T/C (dose: 0.52 mg/kg/injection, schedule: Q01DX Z (sc), vehicle: saline) was 120 % of control and the T/C (dose: 0.86 mg/kg/injection, schedule: Q01DX Z (sc), vehicle: saline) was 120 % of control.
For `CS(=O)(=O)OCCCNCCCOS(C)(=O)=O`, the T/C (dose: 15.0 mg/kg/injection, schedule: Q01DX009 (sc), vehicle: saline) was 111 % of control, the T/C (dose: 30.0 mg/kg/injection, schedule: Q01DX009 (sc), vehicle: saline) was 108 % of control and the T/C (dose: 39.0 mg/kg/injection, schedule: Q04DX003 (ip), vehicle: saline) was 118 % of control. For the same compound, the T/C (dose: 180.0 mg/kg/injection, schedule: Q04DX003 (ip), vehicle: saline) was 93 % of control.
`C[n+]1ccc(Nc2ccc(NC(=O)c3ccc(Nc4cc[n+](C)c5ccc(N)cc45)cc3N)cc2)cc1` was tested, and the T/C (dose: 0.5 mg/kg/injection, schedule: Q03HX024 (ip), vehicle: water) was 111 % of control, the T/C (dose: 1.0 mg/kg/injection, schedule: Q01DX009 (ip), vehicle: water) was 116 % of control and the T/C (dose: 2.0 mg/kg/injection, schedule: Q01DX009 (ip), vehicle: water) was 155 % of control. The T/C (dose: 2.0 mg/kg/injection, schedule: Q01DX009 (sc), vehicle: water) was 110 % of control, the T/C (dose: 2.0 mg/kg/injection, schedule: Q03HX024 (ip), vehicle: water) was 183 % of control and the T/C (dose: 4.0 mg/kg/injection, schedule: Q01DX009 (ip), vehicle: water) was 233 % of control. The T/C (dose: 4.0 mg/kg/injection, schedule: Q01DX009 (sc), vehicle: water) was 170 % of control, the T/C (dose: 4.0 mg/kg/injection, schedule: Q03HX008 (sc), vehicle: water) was 120 % of control and the T/C (dose: 4.0 mg/kg/injection, schedule: Q03HX024 (ip), vehicle: water) was 288 % of control. For the same compound, the T/C (dose: 4.0 mg/kg/injection, schedule: Q03HX024 (sc), vehicle: water) was 165 % of control, the T/C (dose: 8.0 mg/kg/injection, schedule: Q01DX009 (ip), vehicle: water) was 194 % of control and the T/C (dose: 8.0 mg/kg/injection, schedule: Q01DX009 (sc), vehicle: water) was 225 % of control. For the same compound, the T/C (dose: 8.0 mg/kg/injection, schedule: Q03HX024 (ip), vehicle: water) was 188 % of control, the T/C (dose: 8.0 mg/kg/injection, schedule: Q03HX024 (sc), vehicle: water) was 220 % of control and the T/C (dose: 8.0 mg/kg/injection, schedule: Q04DX003 (sc), vehicle: water) was 100 % of control. For the same compound, the T/C (dose: 16.0 mg/kg/injection, schedule: Q01DX001 (sc), vehicle: water) was 110 % of control, the T/C (dose: 16.0 mg/kg/injection, schedule: Q01DX009 (ip), vehicle: water) was 177 % of control and the T/C (dose: 16.0 mg/kg/injection, schedule: Q01DX009 (sc), vehicle: water) was 270 % of control. For the same compound, the T/C (dose: 16.0 mg/kg/injection, schedule: Q03HX008 (sc), vehicle: water) was 235 % of control, the T/C (dose: 16.0 mg/kg/injection, schedule: Q03HX024 (sc), vehicle: water) was 155 % of control and the T/C (dose: 32.0 mg/kg/injection, schedule: Q01DX009 (sc), vehicle: water) was 180 % of control. The T/C (dose: 32.0 mg/kg/injection, schedule: Q03HX008 (sc), vehicle: water) was 210 % of control, the T/C (dose: 32.0 mg/kg/injection, schedule: Q03HX024 (sc), vehicle: water) was 100 % of control and the T/C (dose: 32.0 mg/kg/injection, schedule: Q04DX003 (sc), vehicle: water) was 205 % of control. The T/C (dose: 64.0 mg/kg/injection, schedule: Q01DX001 (sc), vehicle: water) was 215 % of control, the T/C (dose: 64.0 mg/kg/injection, schedule: Q04DX003 (sc), vehicle: water) was 260 % of control and the T/C (dose: 128.0 mg/kg/injection, schedule: Q01DX001 (sc), vehicle: water) was 240 % of control. For the same compound, the T/C (dose: 128.0 mg/kg/injection, schedule: Q04DX003 (sc), vehicle: water) was 245 % of control.
With `NS(=O)(=O)c1ncnc2nc[nH]c12` the T/C (dose: 65.0 mg/kg/injection, schedule: Q01DX Z (sc), vehicle: methylcellulose (MC)) was 100 % of control and the T/C [1] was 105 % of control.
`S=c1nc[nH]c2c1ncn2C1CCCO1` (stereo not given) was tested, and the T/C [1] was 120 % of control, the T/C (dose: 180.0 mg/kg/injection, schedule: Q01DX Z (sc), vehicle: methylcellulose (MC)) was 120 % of control and the T/C (dose: 300.0 mg/kg/injection, schedule: Q01DX Z (sc), vehicle: methylcellulose (MC)) was 100 % of control.
For `CCSc1nc(Cl)cc(Sc2nc(N)nc3nc[nH]c23)n1`, the T/C (dose: 97.5 mg/kg/injection, schedule: Q01DX Z (sc), vehicle: methylcellulose (MC)) was 100 % of control, the T/C (dose: 156.0 mg/kg/injection, schedule: Q01DX Z (sc), vehicle: methylcellulose (MC)) was 100 % of control and the T/C (dose: 250.0 mg/kg/injection, schedule: Q01DX Z (sc), vehicle: methylcellulose (MC)) was 100 % of control. The T/C (dose: 400.0 mg/kg/injection, schedule: Q01DX Z (sc), vehicle: methylcellulose (MC)) was 100 % of control and the T/C (dose: 640.0 mg/kg/injection, schedule: Q01DX Z (sc), vehicle: methylcellulose (MC)) was 95 % of control.
